For experiment [1], the target named is T1, Histone-lysine N-methyltransferase NSD2 (Homo sapiens, UniProt O96028).
T1 sequence (O96028 whole entry): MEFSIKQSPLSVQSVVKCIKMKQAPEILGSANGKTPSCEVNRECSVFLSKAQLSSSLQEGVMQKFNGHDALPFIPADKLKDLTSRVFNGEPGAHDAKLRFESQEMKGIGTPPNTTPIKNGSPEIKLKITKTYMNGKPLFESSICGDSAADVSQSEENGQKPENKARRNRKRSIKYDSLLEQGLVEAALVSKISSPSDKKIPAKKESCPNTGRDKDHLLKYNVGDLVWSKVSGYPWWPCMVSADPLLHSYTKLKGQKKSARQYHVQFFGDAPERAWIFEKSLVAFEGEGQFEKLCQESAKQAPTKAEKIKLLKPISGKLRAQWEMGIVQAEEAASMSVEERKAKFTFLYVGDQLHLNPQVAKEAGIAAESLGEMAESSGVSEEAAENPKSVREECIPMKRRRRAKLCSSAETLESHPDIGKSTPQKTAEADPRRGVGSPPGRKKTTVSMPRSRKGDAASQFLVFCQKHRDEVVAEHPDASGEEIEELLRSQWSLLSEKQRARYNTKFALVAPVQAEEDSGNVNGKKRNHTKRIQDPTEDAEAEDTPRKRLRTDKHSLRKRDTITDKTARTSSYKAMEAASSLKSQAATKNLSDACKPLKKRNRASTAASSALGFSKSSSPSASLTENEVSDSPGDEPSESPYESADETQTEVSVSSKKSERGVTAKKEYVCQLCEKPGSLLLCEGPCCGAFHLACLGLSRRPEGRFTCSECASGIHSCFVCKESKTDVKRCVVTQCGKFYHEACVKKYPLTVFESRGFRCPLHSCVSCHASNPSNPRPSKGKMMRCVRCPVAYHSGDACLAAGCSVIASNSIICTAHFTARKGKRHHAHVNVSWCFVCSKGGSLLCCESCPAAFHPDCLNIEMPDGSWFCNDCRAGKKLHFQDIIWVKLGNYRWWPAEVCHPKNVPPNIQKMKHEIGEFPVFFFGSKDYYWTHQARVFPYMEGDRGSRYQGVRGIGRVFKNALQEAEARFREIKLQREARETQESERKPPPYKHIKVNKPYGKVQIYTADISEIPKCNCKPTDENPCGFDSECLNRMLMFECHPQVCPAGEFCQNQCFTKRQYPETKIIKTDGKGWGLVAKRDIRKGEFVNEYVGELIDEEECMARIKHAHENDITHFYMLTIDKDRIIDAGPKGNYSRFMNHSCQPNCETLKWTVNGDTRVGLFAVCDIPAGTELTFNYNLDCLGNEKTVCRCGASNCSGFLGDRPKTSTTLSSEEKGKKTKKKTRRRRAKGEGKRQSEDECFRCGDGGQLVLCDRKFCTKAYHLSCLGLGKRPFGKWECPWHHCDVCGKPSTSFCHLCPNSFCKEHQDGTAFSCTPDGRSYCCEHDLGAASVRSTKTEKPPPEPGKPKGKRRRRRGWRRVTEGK
It is filed as biochemical.

Experiment [2] concerns the target T2, Sentrin-specific protease 8 (Homo sapiens, UniProt Q96LD8).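 Also: luminescence read-out of SENP8 inhibition, dose-response confirmation following an ultra-high-throughput screen.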
T2 sequence (Q96LD8 whole entry): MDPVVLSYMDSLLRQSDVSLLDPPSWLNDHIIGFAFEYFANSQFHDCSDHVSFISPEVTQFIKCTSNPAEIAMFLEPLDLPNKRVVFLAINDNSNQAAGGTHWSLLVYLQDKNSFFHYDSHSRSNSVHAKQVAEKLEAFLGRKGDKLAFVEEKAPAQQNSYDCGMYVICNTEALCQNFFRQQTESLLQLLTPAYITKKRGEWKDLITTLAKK
It is filed as functional.

For another experiment, the target named is T3, Caspase-3 (Homo sapiens, UniProt P42574).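 Also: Dose-response selectivity test against caspase-3 for candidate inhibitors of sentrin-specific proteases (SENPs).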
T3 sequence (P42574 whole entry): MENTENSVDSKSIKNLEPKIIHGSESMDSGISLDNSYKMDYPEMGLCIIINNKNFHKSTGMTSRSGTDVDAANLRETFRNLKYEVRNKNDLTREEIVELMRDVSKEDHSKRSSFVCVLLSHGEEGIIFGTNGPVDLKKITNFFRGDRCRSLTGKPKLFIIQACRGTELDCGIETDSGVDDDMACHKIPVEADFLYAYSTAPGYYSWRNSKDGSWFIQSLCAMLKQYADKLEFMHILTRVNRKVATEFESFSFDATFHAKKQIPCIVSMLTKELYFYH
It is filed as functional.

For experiment [3], the target named is T4, Sentrin-specific protease 7 (Homo sapiens, UniProt Q9BQF6).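 Also: Luminescence-based dose-response confirmation of ultra-high-throughput screening hits, measuring inhibition of SENP7.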
T4 sequence (Q9BQF6 whole entry): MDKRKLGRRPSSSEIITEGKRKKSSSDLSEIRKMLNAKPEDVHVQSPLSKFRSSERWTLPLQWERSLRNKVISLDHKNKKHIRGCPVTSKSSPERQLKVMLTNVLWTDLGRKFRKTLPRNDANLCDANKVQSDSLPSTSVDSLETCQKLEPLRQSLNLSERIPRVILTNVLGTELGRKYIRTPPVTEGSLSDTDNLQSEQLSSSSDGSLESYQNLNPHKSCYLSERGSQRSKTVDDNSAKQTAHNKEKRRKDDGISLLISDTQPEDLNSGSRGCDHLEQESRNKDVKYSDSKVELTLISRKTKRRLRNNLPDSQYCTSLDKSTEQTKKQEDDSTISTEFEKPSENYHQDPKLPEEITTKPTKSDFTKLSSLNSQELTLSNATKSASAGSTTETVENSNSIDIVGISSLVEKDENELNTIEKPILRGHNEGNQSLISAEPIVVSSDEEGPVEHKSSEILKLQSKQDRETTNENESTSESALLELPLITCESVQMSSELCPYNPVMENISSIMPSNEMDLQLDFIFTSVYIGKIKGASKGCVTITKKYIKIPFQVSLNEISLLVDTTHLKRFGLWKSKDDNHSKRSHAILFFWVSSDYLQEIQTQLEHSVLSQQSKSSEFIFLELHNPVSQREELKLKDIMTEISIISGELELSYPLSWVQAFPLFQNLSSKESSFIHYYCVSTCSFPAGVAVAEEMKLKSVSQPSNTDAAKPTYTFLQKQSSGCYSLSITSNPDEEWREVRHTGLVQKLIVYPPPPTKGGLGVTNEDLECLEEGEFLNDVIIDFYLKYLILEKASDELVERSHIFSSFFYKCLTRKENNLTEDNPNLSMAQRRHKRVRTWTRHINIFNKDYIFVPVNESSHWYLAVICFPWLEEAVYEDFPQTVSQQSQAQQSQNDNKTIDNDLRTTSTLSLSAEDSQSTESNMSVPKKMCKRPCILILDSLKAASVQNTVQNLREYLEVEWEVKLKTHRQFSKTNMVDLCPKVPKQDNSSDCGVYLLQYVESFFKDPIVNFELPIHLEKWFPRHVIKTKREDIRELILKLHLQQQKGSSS
It is filed as functional.

Molecules are shown by their SMILES. Calls of active or inactive are those of the source. Rule as the data show it, for most assays here: actives have a measured IC50 and inactives only a lower limit.

A word on the AC50: it is the concentration giving half of the maximal activity seen. What is called IC50 is the concentration needed to halve the response being measured.

On to `CCOC(=O)c1c(NS(=O)(=O)c2ccccc2)n(CCCOC)c2nc3ccccc3nc12`, for which the concentration at half-maximal activity (AC50) in experiment [1] is 12.1 µM (active). Further, the concentration for half-maximal inhibition (IC50) in experiment [2] is 1.91 µM (active); at Caspase-3, 10 µM (active); in experiment [3] it was 1.02 µM (active).
With `O=C(COC(=O)c1ccc([N+](=O)[O-])s1)NCCc1ccccc1`, in experiment [1], the AC50 was > 20 µM (inactive). For the same molecule, the figures for the 50% inhibitory concentration (IC50) (in experiment [2]; at Caspase-3; in experiment [3]) were 4.74 µM (active), 9.7 µM (active) and 7.56 µM (active), respectively.
